# Source: patent US9212204B2, “Treatment of rett syndrome using glycyl-L-2-methylprolyl-L-glutamic acid” (priority 2011, dated 2015)
# Non-standard residues stand in square brackets, D forms with d. Residues, ends and D or L forms follow the SMILES beside them. αMeP = C[C@@]1(C(=O)O)CCCN1
# Columns and labels:
# [1] = tested on: hippocampal CA1 neurons of mecp2 null mutant mice; test: Golgi staining, dendrite morphology in mecp2 knockout mice; format: in vivo, mouse
# Method: We assess the effects of G-2-MePE treatment on dendrites. Transgenic mecp2 knockout mice (n=15 to 20) were administered G-2-MePE intraperitoneally at a dose of 20 mg/kg once daily. Following sacrifice dendritic spine density, spine length and aborization were examined after Golgi staining after nine weeks, as per the Table 1 below:
# Dendritic length was assessed by distance from the soma of representative hippocampal CA1 neurons from 9 week old male mecp2 null mutant mice treated with either saline (3 neurons analysed from 3 separate mice, n=9) or G-2-MePE (20 mg/kg i.p. 1/day, from week 4; 3 neurons analysed from 3 separate mice, n=9).
# [2] = tested on: layer 5 cortical neurons of MeCP2-/y mice; test: Whole-cell recordings of spontaneous EPSCs in acute brain slices; format: in vivo, mouse; conditions: 20 mg/kg i.p. daily P15 to P28-P32; vs MeCP2-/y mice treated with vehicle
# Method: For the survival measurements, the nocturnal activity analysis and the immunoblot analysis, G-2-MePE (synthesised Albany Molecular Research Inc. (Albany, N.Y.) and supplied by Neuren Pharmaceuticals Limited) is administered daily via intra-peritoneal injections (20 mg/kg, vehicle=saline, 0.01% BSA). The treatment starts at PI 5 and is maintained throughout the course of the experiments. For intracellular physiology experiments, the mice are injected daily with G-2-MePE (20 mg/kg body weight, vehicle=saline, 0.01% BSA) for 2 weeks, from P15 to P28-P32 when they are used for acute slice preparation. For optical imaging experiments, mice are injected with G-2-MePE (20 mg/kg body weight, vehicle=saline, 0.01% BSA) daily from the day of the lid suture to the day of imaging. […]
# Borosilicate pipettes (3-5 MΩ, WP1) are pulled using a Sutter P-80 puller (Sutter Instruments). Cells are visualized with an Achroplan 40× water-immersion lens with infrared-DIC optics (Zeiss) and detected with an infrared camera (Hamamatsu) projecting to a video monitor. […] Then in current clamp ˜10 pulses (500 ms, 40-140 pA at 10 pA increments), are applied to quantify evoked firing rates and cellular excitability. […] Analysis is performed using a custom software package written in Matlab, with all events detected according to automated thresholds and blindly verified for each event individually by the experimenter. […]
# [3] = 20 mg/kg i.p. once daily, 9 weeks of age
smiles,measurement,setting,value
"C[C@@]1(C(=O)N[C@@H](CCC(=O)O)C(=O)O)CCCN1C(=O)CN [Example G-2-MePE, Glycyl-L-2-methylprolyl-L-glutamic acid] (H-Gly-[αMeP]-Glu-OH)",dendritic length as a function of distance from the soma,"[1]; 20 mg/kg i.p. 1/day from week 4, vs saline, FIG. 24",longer dendrites
same,dendritic arborization,[1]; [3],improved
same,dendritic spine length,[1]; [3],increased
same,spontaneous EPSC amplitude,[2],significantly larger
